In publication PMC9145945, “Machine-Learning Guided Discovery of Bioactive Inhibitors of PD1-PDL1 Interaction” (Pharmaceuticals, 2022):
Several values for one entry are separate records, joined by “and”; a condition that tells them apart may be missing. Equal values may be shown once.

How the values were obtained:
[1] = molecular target: T1, human PD1-PDL1 interaction (Homo sapiens, UniProt Q9NZQ7); settings: Table S1; ref BMS Patent 1: WO2015034820A1; cited from earlier work
T1 construct: purchased Perkin Elmer
T1 sequence (Q9NZQ7 19-238 limits assumed): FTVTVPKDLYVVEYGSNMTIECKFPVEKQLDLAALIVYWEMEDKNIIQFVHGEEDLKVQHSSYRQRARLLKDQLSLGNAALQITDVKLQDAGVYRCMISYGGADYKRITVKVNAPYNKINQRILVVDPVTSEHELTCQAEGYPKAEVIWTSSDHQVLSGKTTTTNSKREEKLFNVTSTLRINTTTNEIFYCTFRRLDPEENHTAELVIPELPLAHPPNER

[2] = molecular target: T1, human PD1-PDL1 interaction; assay: HTRF human PD1-PDL1 binding assay; settings: for IC50: dose–response 0–100 µM
From the text: The homogeneous time-resolved fluorescence (HTRF) binding assay was used to test these top 20 molecules for their potential blockade of human PD1-PDL1 interaction. We have previously established the utility of the HTRF assay over similar homogenous assay like AlphaLISA, with the latter proving to be more promiscuous in identifying potential false positives against PD1-PDL1 target.
The potential activity of our virtual hits in inhibiting PD1-PDL1 interaction was investigated using the homogeneous time-resolved fluorescence (HTRF) binding assay from Perkin Elmer. The assay was carried out according to the manufacturer’s instructions using the HTRF protocol in BioTek Synergy Neo^TM microplate reader. […] The assay mixture with only PDL1 protein, but not PD1 protein served as a negative control denoting 0% PD1-PDL1 interaction. […] The dose–response data were analyzed using GraphPad Prism to determine IC50 values using nonlinear regression variable slope models.

[3] = molecular target: protein kinase D (PKD); parameters: method as in PMID 20497126; settings: VEGF-treated endothelial cells; read-out: IC50 against all three PKD isoforms; cited from earlier work
[4] = tested on: ceramide synthase 1 (CerS1); settings: mice fed with high-fat diet; cited from earlier work
[5] = tested on: PD1-PDL1 interaction; parameters: method as in PMID 34117723; settings: read-out: IC50, PD1-PDL1 inhibitor; cited from earlier work
[6] = 25 µM single-dose test concentration

COc1cc(OCc2cccc(-c3ccccc3)c2C)cc(OC)c1CN1CCCC[C@H]1C(=O)O [Compound 1--1]
Activity (classification used for ML modeling) [1]: ACTIVE

CCOc1ccc2cc(-c3cc(-c4cccc(C(=O)NCCN(C)C)c4)cnc3N)ccc2c1 [Compound 1]
% PD1-PDL1 Inhibition [2, 6]: 50.9 ± 1.3% | IC50 [2]: ~22 µM and ~22.4 µM | IC50 ([2]; listed as CRT5): 22.4 µM | IC50 [3]: 0.001 to 0.002 µM

C[C@@](N)(CO)CCc1ccc(OCc2ccc(Cl)c(Cl)c2)cc1 [Compound 2]
% PD1-PDL1 Inhibition [2, 6]: 41.4 ± 0.9% | IC50 [2]: ~33.6 µM | IC50 ([2]; listed as P053): 33.6 µM | fatty acid oxidation in skeletal muscles [4]: increased fatty acid oxidation

Cc1c(COc2ccc(CN3CCCCC3C(=O)O)cc2Br)cccc1-c1ccccc1 (centres unmarked) [Compound 18]
inhibition at 25 µM [2, 6]: -4.4 ± 1.2%

Cc1cc(/C=C/c2ccc3cc(N(C)C)ccc3[n+]2C)c(C)n1-c1ccccc1 [Pyrvinium]
IC50 [5]: ~29.7 µM
